Data from patent US10993433B2, “Method of producing in vitro testicular constructs and uses thereof” (Wake Forest University Health Sciences, priority 2015, dated 2021).
Where two headings read alike, the source gives them in different places.

Key:
[1] = tested on: 2D cultured cells (SSC, Sertoli, Leydig at the same cell ratios and density of 3D organoids); assay: Drug toxicity test, CellTiter-Glo ATP viability, 2D cultured testicular cells; assay type: cell-based, human; details: 2D culture, 48 hours exposure, ATP content (CellTiter-Glo)
Experimental: (§1) For toxicity testing, cisplatin and etoposide were purchased from Santa Cruz Biotechnology (Dallas, Tex.) and stock solutions of 5 mM and 25 mM were made in 0.9% NaCl and DMSO, respectively. Doxorubicin was purchased from Sigma-Aldrich, (St. Louis, Mo.) and a stock solution was produced in diH2O at a concentration of 10 mM. Busulfan (24 mM) was purchased from Otsuka Pharmaceutical (Tokyo, Japan) and was diluted into medium immediately prior to use. The undifferentiated (just after formation, 2 days in culture) and differentiated (23 days in culture) organoids, as well as 2D cultured cells (at the same cell ratios and density of 3D organoids), were treated for 48 hours in 6 different concentrations of each drug (0.01, 0.1, 1, 10, 100 and 1000 μM) in vitro. After 48 hours, CellTiter-Glo® Luminescent Cell Viability assays were performed (Promega) on all conditions. Briefly, culture plates were removed from the incubator and equilibrated to room temperature for 30 minutes. To each well of the 96-well culture plate, 100 μl of CellTiter-Glo® reagent was added at a 1:1 ratio and plates were moved to an orbital shaker for 5 minutes to induce cell lysis. Plates were incubated at room temperature for 10 minutes to stabilize luminescent signal and read on a Veritas™ luminometer. Integration times of 1 second were used for all samples. All conditions were performed in triplicate and medium only control wells were read and subsequently used for background subtraction. IC50 values were determined using GraphPad Prism® 6 calculated via 4-parameter fit with a 95% confidence interval. All experimental conditions were repeated at least three times.
(§2) The use of human testicular organoids as a novel screening tool for reproductive toxicity was assess by exposing 3D organoids to four clinically relevant antimitotic chemotherapeutic drugs: busulfan, cisplatin, doxorubicin, and etoposide. To obtain IC50 values, undifferentiated (2 days in culture) and differentiated (23 days in culture) organoids were exposed to increasing concentrations of drugs for 48 hours. H&E staining as well as Live/Dead viability assays were performed on organoids following drug treatment (FIG. 7A and Figure B, respectively). Drug-treated organoids were harvested and further evaluated for toxicity by measuring ATP production (CellTiter-Glo®; Promega, Madison, Wis.). Resulting viability was then used to establish IC50 values for organoid cultures (FIG. 7C).

[2] = tested on: 3D human testicular organoids; assay: Drug toxicity test, CellTiter-Glo ATP viability, 3D testicular organoids; assay type: cell-based; details: 48 hours exposure, ATP content
Experimental: Isolated human SSC, immortalized Sertoli cells, and immortalized Leydig cells at passage 5-6 were propagated in normal 6-well tissue culture plates to 80-90% confluency and passaged using trypsin EDTA (0.25%). Counted cells were pelleted and resuspended in a testicular organoid formation medium composed of normal StemPro®-34 (Invitrogen) SSC proliferation medium supplemented with 30% FBS, 1 μg/mL solubilized human testis extracellular matrix extract and 50 μg/mL Gentamycin. All three cell suspensions were combined together at a ratio of 8:1:1 and seeded into Perfecta3D® 96-well hanging drop plates (3D Biomatrix, Ann Arbor, Mich.) or GravityPLUS™ 96-well hanging drop plates (InSphero, Schlieren, Switzerland) at a density of 10,000 cells/40 μl drop volume. Following 48-72 hours of hanging drop culture, all testicular cell subtypes had amalgamated into compact organoids and were transferred into 96-well format Corning® Costar® Ultra-low Attachment Multiwell U-bottom plates for long term culture (Sigma-Aldrich, St. Louis, Mo.). For long-term study, all testicular organoids were cultured inn normal StemPro®-34 SSC proliferation medium without human leukemia inhibitory factor (LIF) and supplemented with 1 μg/mL solubilized human testis extracellular matrix extract, 2 μM retinoic acid (Sigma-Aldrich), 2.5×10^−5 IU follicle-stimulating hormone (Sigma-Aldrich), 100 ng/mL recombinant human stem cell factor (SCF; PeproTech, Rocky Hill, N.J.), and 50 μg/mL Gentamycin. Culture medium was refreshed every 4 days. All testicular organoids were cultured at 34° C. and 5% CO2.
as §1
as §2, with “Resulting viability was then used to establish IC50 values for organoid cultures (FIG. 7C).” left out

[3] = Homo sapiens, differentiated organoids (23 days in culture), read-out: 3D IC50 Differentiated Organoids
[4] = Homo sapiens, undifferentiated organoids (2 days in culture), read-out: 3D IC50 Undifferentiated Organoids

CS(=O)(=O)OCCCCOS(C)(=O)=O [Busulfan]
IC50 ([1]; Homo sapiens, Leydig): 328 µM
IC50 [2, 3]: 906 µM
IC50 [2, 4]: 830 µM

N.N.[Cl][Pt][Cl] [Cisplatin]
IC50 [1]: 23.8 µM
IC50 ([2]; differentiated organoids (23 days in culture), read-out: 3D IC50 Differentiated Organoids): 158 µM
IC50 ([2]; undifferentiated organoids (2 days in culture), read-out: 3D IC50 Undifferentiated Organoids): 38.4 µM

COc1cccc2c1C(=O)c1c(O)c3c(c(O)c1C2=O)C[C@@](O)(C(=O)CO)C[C@@H]3O[C@H]1C[C@H](N)[C@H](O)[C@H](C)O1 [Doxorubicin]
IC50 ([1]; Homo sapiens, Leydig): 0.19 µM
IC50 [2, 3]: 2.76 µM
IC50 [2, 4]: 1.33 µM

COc1cc([C@@H]2c3cc4c(cc3[C@@H](O[C@@H]3O[C@@H]5CO[C@@H](C)O[C@H]5[C@H](O)[C@H]3O)[C@H]3COC(=O)[C@H]23)OCO4)cc(OC)c1O [Etoposide]
IC50 ([1]; Homo sapiens, Leydig): 43.5 µM
IC50 [2, 3]: 839 µM
IC50 [2, 4]: 449 µM
